Results published in patent US4624950A, “Method for treating atherosclerosis hyperlipidema, lipid deposition on arterial walls, or raising the ratio of high density lipoprotein cholesterol to total cholesterol in serum” (Nissan Chemical Industries Ltd., priority 1983, dated 1986).
Like-named read-outs stand apart in the source and are kept apart here.

What was measured:
[1] = system: cholesterol-fed hyperlipidemic rats; assay: Antihyperlipidemic activity in cholesterol-fed hyperlipidemic rats (Test 3); format: in vivo, rat (male S.D.)
Protocol: It is administered from once to three times per day. The dose may of course be varied depending upon the age, the weight or the condition of illness of the patient. […] In the following tests, the fractionation of lipoproteins was conducted by a dextran sulfate-MgCl2 precipitation method.
Cholesterol in serum was measured by means of a cholesterol measuring kit (Cholesterol C-Test Wako, manufactured by Wako Junyaku Co., Ltd.), and cholesterol in HDL was measured by means of NC Hi-Set, manufactured by Nippon Chemiphar Co., Ltd. The quantitative analysis of triglyceride was conducted by means of a triglyceride measuring kit (Triglyceride C-II-Test Wako, manufactured by Wako Junyaku Co., Ltd.).
Further, the change rate in the following Tables, was calculated by the following equation.
Change rate(%)=(A-B/A)×100 where A is the amount of serum lipids (mg/dl) of the control group, and B is the amount of serum lipids (mg/dl) of the group to which the therapeutic agent was administered.
The antihyperlipidemic activity in cholesterol-fed hyperlipidemic rats
Male S.D. rats weighing 80-90 g (30 days old) were divided into groups of 5 rats each. The test compounds suspended in 0.5% CMC-Na were given to the rats in a daily dose of 0.4 ml per 100 g rat via stomach tube every 10:00 a.m. for 7 or 14 days. Control groups were given an equal volume of the vehicle. […] The total cholesterol, triglyceride and HDL cholesterol in serum were measured. After sacrificed, the livers were excised, washed with physiological saline, blotted on filter paper and weighed. The degree of hepatomegaly was calculated by the following equation.
Degree of hepatomegaly (%)=(D-C/C)×100 where C is the liver weight (g) per 100 g body weight in the control animal, and D is the liver weight (g) per 100 g body weight in the drug treated animal.

cytochrome P-450 = assay: Effect on cytochrome P-450 / hepatic drug metabolizing systems of normal rats (Test 5); format: in vivo, rat (male S.D.); conditions: 300 mg/kg/day, seven days
Protocol: The activities against serum lipid, the degree of hepatomegaly and the hepatic drug metabolizing systems of normal rats
Male S.D. rats (6 weeks old) were divided into groups of 5 rats each. The test compounds suspended in 5% gum arabic were given to the rats once a day for seven days in a daily dose of 300 mg/kg. Then, the rats were fasted for one day, blood samples were taken, and the total cholesterol, triglyceride, HDL-cholesterol in the serum were quantitatively analyzed. Further, the liver weight was measured, and the degree of hepatomegaly was determined by comparing the weight ratio per 100 g of the body weight with that of the control group. Furthermore, GOT and GPT values were measured, and the activities of cytochrome P-450 and glutathione related enzymes were also measured. These values were compared with those of the control groups to investigate any abnormality.

[2] = system: Escherichia coli (WP2UVrA); conditions: up to 5000 μg/Plate, absence or presence of S-9 mix of rat liver
Protocol: (§1) The mutagenicity was tested by using Escherichia coli (WP2UVrA) and Salmonella (TA98, TA100, TA1535 and TA1538) in the absence or presence of a drug metabolizing enzymes S-9 mix of rat liver.

[3] = system: Salmonella (TA98, TA100, TA1535 and TA1538); assay: Mutagenicity test, Salmonella (Test 6); conditions: up to 5000 μg/Plate, absence or presence of S-9 mix of rat liver
Protocol: as §1

[4] = Acute toxicity test (Test 7); conditions: mouse, in vivo, mortality after seven days, read-out: Acute toxicity: dose up to which no toxicity was shown
Protocol: The test compounds suspended in 0.5% CMC-Na were administered p.o. or injected i.p. to male ddY mice. The acute toxicity was dertermined based on the mortality after seven days.

For CN1C(=S)SC(c2ccccc2)N(C)C1c1ccccc1 (stereo not drawn) [Compound of the formula I, 3,5-dimethyl-4,6-diphenyl-tetrahydro-2H-1,3,5-thiadiazine-2-thione], the “Hepatomegaly (in words)” value ([1]; 7 or 14 days) was “no hepatomegaly”, the “Lipid reducing and HDL-cholesterol increasing activity (in words)” value ([1]; 7th day) was “not distinct very much” and the “Change rate, HDL-Chol” value ([1]; 7th day, 10 mg/kg/day p.o.) was -12.7%. The “Change rate, TG” value ([1]; 7th day, 10 mg/kg/day p.o.) was -13.8%, the “Change rate, Total-Chol” value ([1]; 7th day, 10 mg/kg/day p.o.) was -3.3% and the Degree of hepatomegaly ([1]; 7th day, 10 mg/kg/day p.o.) was “+4.0%”. For the same compound, the “Serum lipid, HDL-Chol” value ([1]; 7th day, 10 mg/kg/day p.o.) was 15.8 mg/dL, the “Serum lipid, TG” value ([1]; 7th day, 10 mg/kg/day p.o.) was 105.9 mg/dL and the “Serum lipid, Total-Chol” value ([1]; 7th day, 10 mg/kg/day p.o.) was 421.7 mg/dL. For the same compound, the “Change rate, HDL-Chol” value ([1]; 7th day, 50 mg/kg/day p.o.) was 0%, the “Change rate, TG” value ([1]; 7th day, 50 mg/kg/day p.o.) was -15.3% and the “Change rate, Total-Chol” value ([1]; 7th day, 50 mg/kg/day p.o.) was -33.6%. For the same compound, the Degree of hepatomegaly ([1]; 7th day, 50 mg/kg/day p.o.) was “+2.0%”, the “Serum lipid, HDL-Chol” value ([1]; 7th day, 50 mg/kg/day p.o.) was 18.1 mg/dL and the “Serum lipid, TG” value ([1]; 7th day, 50 mg/kg/day p.o.) was 104.0 mg/dL. The “Serum lipid, Total-Chol” value ([1]; 7th day, 50 mg/kg/day p.o.) was 289.8 mg/dL, the “Change rate, HDL-Chol” value ([1]; 7th day, 100 mg/kg/day p.o.) was “+6.1%” and the “Change rate, TG” value ([1]; 7th day, 100 mg/kg/day p.o.) was -24.5%. The “Change rate, Total-Chol” value ([1]; 7th day, 100 mg/kg/day p.o.) was -32.4%, the “Serum lipid, HDL-Chol” value ([1]; 7th day, 100 mg/kg/day p.o.) was 19.2 mg/dL and the “Serum lipid, TG” value ([1]; 7th day, 100 mg/kg/day p.o.) was 92.7 mg/dL. For the same compound, the “Serum lipid, Total-Chol” value ([1]; 7th day, 100 mg/kg/day p.o.) was 294.7 mg/dL, the “Change rate, HDL-Chol” value ([1]; 7th day, 150 mg/kg/day p.o.) was -4.4% and the “Change rate, TG” value ([1]; 7th day, 150 mg/kg/day p.o.) was -46.1%. For the same compound, the “Change rate, Total-Chol” value ([1]; 7th day, 150 mg/kg/day p.o.) was -11.7%, the Degree of hepatomegaly ([1]; 7th day, 150 mg/kg/day p.o.) was “+12.0%” and the “Serum lipid, HDL-Chol” value ([1]; 7th day, 150 mg/kg/day p.o.) was 17.3 mg/dL. For the same compound, the “Serum lipid, TG” value ([1]; 7th day, 150 mg/kg/day p.o.) was 66.2 mg/dL, the “Serum lipid, Total-Chol” value ([1]; 7th day, 150 mg/kg/day p.o.) was 385 mg/dL and the “Lipid reducing and HDL-cholesterol increasing activity (in words)” value ([1]; 14th day) was “strong lipid reducing activity and HDL-cholesterol increasing activity”. For the same compound, the “Change rate, HDL-Chol” value ([1]; 14th day, 10 mg/kg/day p.o.) was “+129.9%”, the “Change rate, TG” value ([1]; 14th day, 10 mg/kg/day p.o.) was -44.6% and the “Change rate, Total-Chol” value ([1]; 14th day, 10 mg/kg/day p.o.) was -42.5%. For the same compound, the Degree of hepatomegaly ([1]; 14th day, 10 mg/kg/day p.o.) was “+5.3%”, the “Serum lipid, HDL-Chol” value ([1]; 14th day, 10 mg/kg/day p.o.) was 20.0 mg/dL and the “Serum lipid, TG” value ([1]; 14th day, 10 mg/kg/day p.o.) was 92.5 mg/dL. The “Serum lipid, Total-Chol” value ([1]; 14th day, 10 mg/kg/day p.o.) was 336.5 mg/dL, the “Change rate, HDL-Chol” value ([1]; 14th day, 50 mg/kg/day p.o.) was “+135.6%” and the “Change rate, TG” value ([1]; 14th day, 50 mg/kg/day p.o.) was -47.5%. For the same compound, the “Change rate, Total-Chol” value ([1]; 14th day, 50 mg/kg/day p.o.) was -33.5%, the Degree of hepatomegaly ([1]; 14th day, 50 mg/kg/day p.o.) was “+1.8%” and the “Serum lipid, HDL-Chol” value ([1]; 14th day, 50 mg/kg/day p.o.) was 20.5 mg/dL. For the same compound, the “Serum lipid, TG” value ([1]; 14th day, 50 mg/kg/day p.o.) was 87.7 mg/dL, the “Serum lipid, Total-Chol” value ([1]; 14th day, 50 mg/kg/day p.o.) was 389.2 mg/dL and the “Change rate, HDL-Chol” value ([1]; 14th day, 100 mg/kg/day p.o.) was “+186.2%”. The “Change rate, TG” value ([1]; 14th day, 100 mg/kg/day p.o.) was -44.8%, the “Change rate, Total-Chol” value ([1]; 14th day, 100 mg/kg/day p.o.) was -53.7% and the Degree of hepatomegaly ([1]; 14th day, 100 mg/kg/day p.o.) was “+10.5%”. For the same compound, the “Serum lipid, HDL-Chol” value ([1]; 14th day, 100 mg/kg/day p.o.) was 24.9 mg/dL, the “Serum lipid, TG” value ([1]; 14th day, 100 mg/kg/day p.o.) was 92.2 mg/dL and the “Serum lipid, Total-Chol” value ([1]; 14th day, 100 mg/kg/day p.o.) was 271.3 mg/dL. The “Change rate, HDL-Chol” value ([1]; 14th day, 150 mg/kg/day p.o.) was “+147.1%”, the “Change rate, TG” value ([1]; 14th day, 150 mg/kg/day p.o.) was -53.8% and the “Change rate, Total-Chol” value ([1]; 14th day, 150 mg/kg/day p.o.) was -60.9%. For the same compound, the Degree of hepatomegaly ([1]; 14th day, 150 mg/kg/day p.o.) was “+5.3%”, the “Serum lipid, HDL-Chol” value ([1]; 14th day, 150 mg/kg/day p.o.) was 21.5 mg/dL and the “Serum lipid, TG” value ([1]; 14th day, 150 mg/kg/day p.o.) was 77.1 mg/dL. The “Serum lipid, Total-Chol” value ([1]; 14th day, 150 mg/kg/day p.o.) was 228.6 mg/dL, the “Abnormalities in activity against cytochrome P-450 or other liver microsome drug metabolizing systems (in words)” value (cytochrome P-450) was “no abnormalities were observed” and the Mutagenicity [2] was “did not show any mutagenicity”. For the same compound, the Mutagenicity [3] was “did not show any mutagenicity”, the NOAEL at 168 h ([4]; ip, abdominal (i.p.) administration) was no less than 4000 mg/kg and the NOAEL at 168 h ([4]; oral administration) was no less than 8000 mg/kg.
